Reference: ChEMBL document CHEMBL1201862, “PubChem BioAssay data set” (2004)
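How tested: cells in 96-well plates exposed to compound for 48 hours at five concentrations. At the GI50, growth is halved.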 The source made the active and inactive calls. No stated cut-off is given here; in the data, active = GI50 up to about 1.1 µM and inactive = higher.

Tests used:
Assay in all cases: NCI-60 cell line screen, 48 h
[1] = test system: A498
[2] = test system: A549
[3] = test system: CAKI-1
[4] = test system: EKVX
[5] = test system: HCT-116
[6] = test system: K562
[7] = test system: LOX IMVI
[8] = test system: NCI-H522
[9] = test system: OVCAR-5
[10] = test system: RPMI-8226
[11] = test system: SF-539
[12] = test system: SK-MEL-28
[13] = test system: SK-MEL-5
[14] = test system: SK-OV-3
[15] = test system: U-251
[16] = test system: UACC-257
[17] = test system: UACC-62
[18] = test system: NCI-H226

Measured: GI50

COC(=O)C[C@H]1CCC2(OCCO2)[C@]1(C)C(=O)OC
inactive: [1] > 100 µM | [2] > 100 µM | [3] > 100 µM | [4] > 100 µM | [5] > 100 µM | [6] > 100 µM | [7] > 100 µM | [8] > 100 µM | [9] > 100 µM | [10] > 100 µM | [11] > 100 µM | [12] > 100 µM | [13] > 100 µM | [14] > 100 µM | [15] > 100 µM | [16] > 100 µM | [17] > 100 µM

CN(C)CCC(=O)/C=C\c1ccccc1
inactive: [1] 20 µM | [2] 21.6 µM | [3] 18.3 µM | [4] 18.7 µM | [5] 15.3 µM | [6] 13.2 µM | [7] 14.3 µM | [18] 23 µM | [8] 18.9 µM | [9] 20.9 µM | [10] 14.6 µM | [11] 16.8 µM | [12] 16.9 µM | [13] 17.6 µM | [15] 17.5 µM | [16] 17.3 µM | [17] 17.4 µM

COc1ccc([C@@H]2CC(=O)NCCCCNCCCN2)cc1
inactive: [1] > 100 µM | [2] > 100 µM | [3] > 100 µM | [4] > 100 µM | [5] > 100 µM | [6] > 100 µM | [18] > 100 µM | [8] > 100 µM | [9] > 100 µM | [10] > 100 µM | [11] > 100 µM | [12] > 100 µM | [13] > 100 µM | [14] > 100 µM | [15] > 100 µM | [16] > 100 µM | [17] > 100 µM

CC1(C)OC2C(CCP(=O)(O)O)OC(c3nc(C(N)=O)cs3)C2O1 (stereo unspecified)
inactive: [1] > 100 µM | [2] > 100 µM | [3] > 100 µM | [4] > 100 µM | [5] > 100 µM | [6] > 100 µM | [7] > 100 µM | [18] > 100 µM | [8] > 100 µM | [9] > 100 µM | [10] > 100 µM | [12] > 100 µM | [14] > 100 µM | [15] > 100 µM | [16] > 100 µM | [17] > 100 µM

C[C@]12CC[C@H](OC(=O)Cc3ccc(N(CCCl)CCCl)cc3)CC1CC[C@@H]1C2CC[C@]2(C)NC(=O)CCC12 (stereo partly specified)
inactive: [1] 18.9 µM | [2] 14.6 µM | [3] 3.92 µM | [5] 5.11 µM | [6] 4.06 µM | [7] 13.2 µM | [18] 15.5 µM | [8] 10.7 µM | [10] 4.16 µM | [11] 3.5 µM | [12] 15 µM | [13] 15.6 µM | [14] 17 µM | [15] 11.2 µM | [16] 13.2 µM | [17] 6.68 µM

CCCCCCCCCCCCCC(=O)OCC1OC(n2cc(F)c(=O)[nH]c2=O)C(N)C(OC(=O)CCCCCCCCCCCCC)C1O (stereo unspecified)
inactive: [1] > 100 µM | [2] > 100 µM | [3] > 100 µM | [4] > 100 µM | [5] > 100 µM | [6] > 100 µM | [7] > 100 µM | [8] > 100 µM | [10] > 100 µM | [11] 42.7 µM | [12] > 100 µM | [13] > 100 µM | [14] > 100 µM | [15] > 100 µM | [16] > 100 µM | [17] > 100 µM

O=C(Cc1ccccc1)NN1C(=O)C(Cl)C1c1cc(Br)ccc1O (stereo unspecified)
inactive: [2] 10.1 µM | [3] 13 µM | [4] 3.03 µM | [5] 3.83 µM | [6] 3.35 µM | [7] 4.15 µM | [18] 30 µM | [8] 2.72 µM | [9] 5.57 µM | [10] 3.72 µM | [12] 3.94 µM | [13] 7.59 µM | [14] 4.07 µM | [15] 3.69 µM | [16] 1.29 µM | [17] 4.15 µM

Cc1nc2sccn2c1C(=O)N/N=C1\SCC(=O)N1C
inactive: [2] > 100 µM | [3] > 100 µM | [4] > 100 µM | [5] > 100 µM | [6] > 100 µM | [7] > 100 µM | [18] > 100 µM | [8] > 100 µM | [9] > 100 µM | [10] > 100 µM | [11] > 100 µM | [12] > 100 µM | [13] > 100 µM | [14] > 100 µM | [15] > 100 µM | [16] > 100 µM | [17] > 100 µM

Cc1cc(Cl)cc2c1NC(=O)C2(O)CC(=O)c1ccc(F)cc1 (stereo unspecified)
inactive: [2] 30.2 µM | [3] > 100 µM | [4] > 100 µM | [5] 56.4 µM | [7] 27.7 µM | [18] 39.8 µM | [9] > 100 µM | [10] 27.2 µM | [11] 40.9 µM | [12] 37.2 µM | [14] > 100 µM | [15] 39 µM | [16] 37.3 µM | [17] 20 µM
